Measured values as given in article PMC9182141, “Assay Development and Identification of the First Plasmodium falciparum 7,8-dihydro-6-hydroxymethylpterin-pyrophosphokinase Inhibitors” (Molecules, 2022).
Structures can show the parent of a compound that is named as a salt.

Experiments:
[1] = biological target: T1, PfHPPK-GFP (Plasmodium falciparum, UniProt Q25704); experiment: DSF-GTP (GFP-tagged protein differential scanning fluorimetry) thermal shift; assay type: binding; conditions: read-out: ΔTm (°C)
Procedure: In a preliminary screening experiment, buffer conditions were investigated, searching for conditions that provide the largest thermal shift in the presence of 1 mM ATP. DSF curves were recorded under a total of 17 different conditions, with variations in buffer nature and pH, salts nature and concentration, effect of reducing agent, MgSO4 and glycerol.
From there, protein binding properties of the hit compounds were assessed experimentally using the developed DSF-GTP assay. A total of 54 compounds were tested, including virtual screening hits and closely related structures. According to our protocol, each compound was mixed with PfHPPK-GFP and submitted to a temperature gradient from 30 °C to 90 °C at 1 °C/min while GFP fluorescence was recorded. The first derivative of the resulting curve was used to determine the melting temperature (Tm). For each set of experiments, a negative control containing DMSO was added, and ΔTm values were calculated for each compound vs. the DMSO control. […] Two compound families were identified as the most promising by our DSF-GTP assay: 5-phenylazo-2,4-diaminopyrimidines (series 1) and phenyltriazolyl-2-amino-4-pyrimidinone (series 2). In series 2, linkers of different lengths that separate the phenyl triazolyl and the pyrimidine moieties were included.
In a typical DSF-GTP experiment, a master mix containing buffer and PfHPPK-GFP was prepared in a microcentrifuge tube, corresponding to a final protein concentration of 20 μg/mL. Ligands of interest were dispensed in low-profile 96-well plates (Bio-Rad) to 1 mM final concentration, and the master mix was dispensed to a final volume of 50 μL per well. In these conditions, DMSO content was maintained constant at 2%. The microplate was sealed with adhesive film and mixed by shaking for 2 min at 800 rpm at RT. The microplate was then submitted to a DSF run on a CFX96 RT-PCR (Bio-Rad, Hercules, CA, USA). DSF program was designed by starting with a 3 min equilibration phase at 30 °C, followed by a temperature gradient of 1 °C/min until 90 °C, recording fluorescence every 0.5 °C. Fluorescence was recorded using the FAM channel (λex = 450–490 nm, λem = 510–530 nm). Curves were fitted using the Precision Melt Analysis software (Bio-Rad).

[2] = biological target: T1, PfHPPK-GFP; experiment: KinaseGlo enzyme inhibition assay; assay type: biochemical; conditions: 1 mM compound, 10 μM HMDP and 10 μM ATP, 20 min at RT; read-out: Inhib. at 1 mM (%)
Procedure: For all the compounds displaying a measurable change of Tm, PfHPPK inhibition was recorded at 10 μM HMDP and ATP and 1 mM compound using the KinaseGlo assay. These conditions were chosen to be in the reported Km range for both HMDP and ATP substrates, enabling detection of both competitive and uncompetitive inhibitors. Compounds were incubated with HMDP, ATP and HPPK-GFP for 20 min at RT, followed by addition of the KinaseGlo reagent. After 10 min equilibration, luminescence was recorded, which directly reflects the quantity of ATP left in solution at the end of the reaction. Percentages of inhibition were calculated based on a DMSO positive control and a negative control lacking HPPK-GFP. Compounds structures, ΔTm and levels of inhibition appear in Table 1 and Table 2.
PfHPPK-GFP inhibition assay was carried using the KinaseGlo Plus kit (Promega, Madison, WI, USA). In a black 96-well plate were dispensed test compounds (1 μL of 50 mM DMSO stock), master mix (100 mM Tris pH 9, 10 mM β-mercapto ethanol, 10 mM MgSO4, 0.01% w/v BSA, 10 μM HMDP and 10 μM ATP). Reaction was initiated by addition of 2 μg of enzyme, reaching a total reaction volume of 50 μL, and reaction was allowed to proceed for 20 min at RT shaking at 300 rpm. Reaction was then quenched by addition of 50 μL KinaseGlo reagent and allowed to equilibrate for 10 min at RT shaking at 300 rpm. Luminescence was recorded on a Biotek Synergy H1 plate reader (Agilent, Santa Clara, CA, USA) using an integration time of 1 s per well. Percentage of inhibition was calculated related to a positive control experiment (no enzyme added) and a negative control experiment (no inhibitor added).

[3] = system: Plasmodium falciparum V1/S (drug resistant); experiment: Antimalarial activity, [3H]-hypoxanthine incorporation assay, V1/S; assay type: cell-based; conditions: P. falciparum V1/S (drug resistant), when no IC50 could be determined, highest tested concentration noted
Procedure: (§1) Finally, the various hit compounds were tested for their antimalarial activity against P. falciparum TM4/8.2 [26] and V1/S [27] strains. Parasite cultures were treated with test compounds at different concentrations, and antimalarial activity was measured using [3H]-hypoxanthine incorporation assay, according to our previously reported protocol. […] IC50 values could not be measured for other compounds. At this stage, there is no explanation for the difference in antiparasitic activity observed between TM4/8.2 and V1/S strains, and more investigations would be needed to conclude on this effect.
(§2) Compounds were tested for their antimalarial activity against P. falciparum TM4/8.2 [26] and V1/S [27] strains according to our previously reported protocol. In brief, parasite strains were maintained continuously in human erythrocytes in RPMI1640 supplemented with 25 mM HEPES pH 7.4, 0.2% NaHCO3, 40 µg/mL gentamicin and 8% human serum at 37 °C under 3% CO2. For in vitro antimalarial assay, parasite was treated with serial dilutions of the inhibitors, and parasite survival was determined using a modified microdilution radioisotope technique.

[4] = system: Vero cell line (African green monkey kidney cells); experiment: Cytotoxicity, sulforhodamine B assay, Vero cells; assay type: cell-based; conditions: Chlorocebus sabaeus, 72 h, when no IC50 could be determined, highest tested concentration noted
[5] = system: KB cell line (human epithelial carcinoma cells); experiment: Cytotoxicity, sulforhodamine B assay, KB cells; assay type: cell-based; conditions: 72 h, when no IC50 could be determined, highest tested concentration noted
[6] = system: Plasmodium falciparum TM4/8.2 (drug sensitive); experiment: Antimalarial activity, [3H]-hypoxanthine incorporation assay, TM4/8.2; assay type: cell-based; conditions: P. falciparum TM4/8.2 (drug sensitive), when no IC50 could be determined, highest tested concentration noted
Procedure: as §1, §2

[7] = Metabolic stability in human liver microsomes; conditions: for microsomal CLint: human, liver microsomes
Procedure: (§3) Intrinsic clearance was also measured in both human and rat liver microsomes in order to assess sensitivity to metabolic degradation.
(§4) Metabolic stability of test compounds was determined in human and rat liver microsomes. The assay was adapted from a previously published method. Briefly, the test compounds were mixed with liver microsomes, and the metabolic reactions were initiated by the addition of NADPH. Acetonitrile containing an internal standard (labetalol) was added at 0, 5, 10, 30, and 60 min to stop the reactions. Samples were processed, and the remaining compounds in the reactions were detected using a LC-MS/MS. Distribution coefficient, solubility and polar surface area were predicted using Marvin software. Partition coefficient was predicted using ACD/Labs software.

[8] = Metabolic stability in rat liver microsomes; conditions: for microsomal CLint: rat, liver microsomes
Procedure: as §3, §4

[9] = system: PfHPPK; parameters: method as in PMID 19631695; conditions: substrate of monofunctional PfHPPK; cited from earlier work

T1 sequence (Q25704 entry or part of it): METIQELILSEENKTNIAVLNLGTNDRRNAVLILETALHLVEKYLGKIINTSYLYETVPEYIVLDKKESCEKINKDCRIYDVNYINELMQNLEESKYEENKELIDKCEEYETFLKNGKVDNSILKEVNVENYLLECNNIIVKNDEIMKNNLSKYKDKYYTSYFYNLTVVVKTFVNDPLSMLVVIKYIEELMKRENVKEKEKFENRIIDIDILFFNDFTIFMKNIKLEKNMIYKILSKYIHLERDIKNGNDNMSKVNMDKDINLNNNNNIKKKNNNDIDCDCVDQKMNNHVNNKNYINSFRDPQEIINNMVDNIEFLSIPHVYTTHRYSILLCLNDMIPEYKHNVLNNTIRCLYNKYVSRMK

## Cc1nc(N)[nH]c(=O)c1Cc1cn(-c2cccc(C(=O)O)c2)nn1 [Compound 7, 2-Amino-6-methyl-5-((1-(3-(carboxy)phenyl)-1H-1,2,3-triazol-4-yl)methyl)pyrimidin-4(3H)-one]
[1]
  ΔTm at 1000 µM: -1 °C
[2]
  inhibition at 1000 µM: 9.2 ± 1.5%
[3]; Plasmodium falciparum
  IC50: > 25 µM
[4]
  IC50: > 25 µM
[5]
  IC50: > 25 µM
[6]
  IC50: > 25 µM

## CCc1nc(N)[nH]c(=O)c1Cc1cn(-c2cccc([N+](=O)[O-])c2)nn1 [Compound 10, 2-Amino-6-ethyl-5-((1-(3-(nitro)phenyl)-1H-1,2,3-triazol-4-yl)methyl)pyrimidin-4(3H)-one hydrochloride]
[1]
  ΔTm at 1000 µM: -1.2 ± 0.3 °C
[2]
  inhibition at 1000 µM: 12.1 ± 4%
[3]; Plasmodium falciparum
  IC50: > 50 µM
[4]
  IC50: > 50 µM
[5]
  IC50: > 50 µM
[6]
  IC50: > 50 µM

## COc1nc(N)nc(N)c1/N=N/c1cccc(C(=O)O)c1 [Compound 3, (E)-3-((2,4-Diamino-6-methoxypyrimidin-5-yl)diazenyl) benzoic acid]
[1]
  ΔTm at 1000 µM: -1 °C
[2]
  inhibition at 1000 µM: 23.3 ± 4.8%
[3]; Plasmodium falciparum
  IC50: > 50 µM
[7]
  microsomal CLint: < 3 µL/min/mg
[4]
  IC50: > 100 µM
[5]
  IC50: > 100 µM
[8]
  microsomal CLint: < 3 µL/min/mg
[6]
  IC50: > 50 µM

## CCc1nc(N)[nH]c(=O)c1CCCc1cn(-c2ccc(C(=O)O)cc2)nn1 [Compound 13, 2-Amino-6-ethyl-5-(3-(1-(4-(carboxy)phenyl)-1H-1,2,3-triazol-4-yl)propyl)pyrimidin-4(3H)-one hydrochloride]
[1]
  ΔTm at 1000 µM: -1.5 °C
[2]
  inhibition at 1000 µM: 24.9 ± 3.1%
[3]; Plasmodium falciparum
  IC50: > 50 µM
[7]
  microsomal CLint: < 3 µL/min/mg
[4]
  IC50: > 50 µM
[5]
  IC50: > 50 µM
[8]
  microsomal CLint: 7.38 µL/min/mg
[6]
  IC50: > 50 µM

## CCc1nc(N)[nH]c(=O)c1Cc1cn(-c2ccc(C(=O)O)cc2)nn1 [Compound 8, 2-Amino-6-ethyl-5-((1-(4-(carboxy)phenyl)-1H-1,2,3-triazol-4-yl)methyl)pyrimidin-4(3H)-one]
[1]
  ΔTm at 1000 µM: -1.2 ± 0.3 °C
[2]
  inhibition at 1000 µM: 6.9 ± 2%
[3]; Plasmodium falciparum
  IC50: > 50 µM
[4]
  IC50: > 50 µM
[5]
  IC50: > 50 µM
[6]
  IC50: > 50 µM

## CCc1nc(N)nc(N)c1OCCCOc1ccccc1CCC(=O)O [Compound P218, reference compound]
[7]; human liver microsomes, NADPH
  CLint (HLM): <3 µL/min/mg
[8]; rat liver microsomes, NADPH
  CLint (RLM): <3 µL/min/mg

## CCc1nc(N)[nH]c(=O)c1CCc1cn(-c2ccc(C(=O)O)cc2)nn1 [Compound 11, 2-Amino-6-ethyl-5-(2-(1-(4-(carboxy)phenyl)-1H-1,2,3-triazol-4-yl)ethyl)pyrimidin-4(3H)-one hydrochloride]
[1]
  ΔTm at 1000 µM: -1.3 ± 0.3 °C
[2]
  inhibition at 1000 µM: 34.9 ± 5.5%
[3]; Plasmodium falciparum
  IC50: > 50 µM
[7]
  microsomal CLint: < 3 µL/min/mg
[4]
  IC50: > 50 µM
[5]
  IC50: > 50 µM
[8]
  microsomal CLint: 6.91 µL/min/mg
[6]
  IC50: > 50 µM

## Nc1nc(O)c2c(n1)NCC(CO)=N2 [HMDP, 2-amino-4-hydroxy-6-hydroxymethyl-7,8-dihydropteridine]
[9]
  Km: 2.1 µM

## CCc1nc(N)[nH]c(=O)c1CCc1cn(-c2cccc(C(=O)O)c2)nn1 [Compound 12, 2-Amino-6-ethyl-5-(2-(1-(3-(carboxy)phenyl)-1H-1,2,3-triazol-4-yl)ethyl)pyrimidin-4(3H)-one hydrochloride]
[1]
  ΔTm at 1000 µM: -1.3 ± 0.3 °C
[2]
  inhibition at 1000 µM: 24.5 ± 2.3%
[3]; Plasmodium falciparum
  IC50: > 50 µM
[4]
  IC50: > 50 µM
[5]
  IC50: > 50 µM
[6]
  IC50: > 50 µM

## Cc1nc(N)[nH]c(=O)c1Cc1cn(-c2ccc(C(=O)O)cc2)nn1 [Compound 6, 2-Amino-6-methyl-5-((1-(4-(carboxy)phenyl)-1H-1,2,3-triazol-4-yl)methyl)pyrimidin-4(3H)-one]
[1]
  ΔTm at 1000 µM: -1 °C
[2]
  inhibition at 1000 µM: 1.8 ± 0.6%
[3]; Plasmodium falciparum
  IC50: > 25 µM
[4]
  IC50: > 25 µM
[5]
  IC50: > 25 µM
[6]
  IC50: > 25 µM

## Nc1nc(N)c(/N=N/c2cccc(C(=O)O)c2)c(N)n1 [Compound 5, (E)-3-((2,4,6-Triaminopyrimidin-5-yl)diazenyl)benzoic acid]
[1]
  ΔTm at 1000 µM: -1 °C
[2]
  inhibition at 1000 µM: 14.6 ± 3.2%
[3]; Plasmodium falciparum
  IC50: > 10 µM
[6]
  IC50: > 10 µM

## CCc1nc(N)[nH]c(=O)c1Cc1cn(-c2cccc(C(=O)O)c2)nn1 [Compound 9, 2-Amino-6-ethyl-5-((1-(3-(carboxy)phenyl)-1H-1,2,3-triazol-4-yl)methyl)pyrimidin-4(3H)-one]
[1]
  ΔTm at 1000 µM: -1 °C
[2]
  inhibition at 1000 µM: 16.4 ± 2.9%
[3]; Plasmodium falciparum
  IC50: > 50 µM
[4]
  IC50: > 50 µM
[5]
  IC50: > 50 µM
[6]
  IC50: > 50 µM

## COc1nc(N)nc(N)c1/N=N/c1cccc([N+](=O)[O-])c1 [Compound 1, (E)-6-Methoxy-5-((3-nitrophenyl)diazenyl)pyrimidine-2,4-diamine]
[1]
  ΔTm at 1000 µM: -1 °C
[2]
  inhibition at 1000 µM: 2.5 ± 1.4%
[3]
  IC50: 21 µM
[3]; Plasmodium falciparum
  IC50: 21 µM
[4]
  IC50: > 100 µM
[5]
  IC50: > 100 µM
[6]
  IC50: > 100 µM

## Nc1nc(N)c(/N=N/c2ccccc2)c(N)n1 [Compound 4, (E)-5-(Phenyldiazenyl)pyrimidine-2,4,6-triamine]
[1]
  ΔTm at 1000 µM: -1 °C
[2]
  inhibition at 1000 µM: 46 ± 7.5%
[3]; Plasmodium falciparum
  IC50: > 50 µM
[7]
  microsomal CLint: 363 µL/min/mg
[4]
  IC50: 29.6 µM
[5]
  IC50: 62.4 µM
[8]
  microsomal CLint: 82.4 µL/min/mg
[6]
  IC50: 75.4 µM

## COC(=O)c1cccc(/N=N/c2c(N)nc(N)nc2Cl)c1 [Compound 2, Methyl (E)-3-((2,4-diamino-6-chloropyrimidin-5-yl)diazenyl) benzoate]
[1]
  ΔTm at 1000 µM: -1 °C
[2]
  inhibition at 1000 µM: 11 ± 4.8%
[3]
  IC50: 89.2 µM
[3]; Plasmodium falciparum
  IC50: 89.2 µM
[4]
  IC50: > 100 µM
[5]
  IC50: > 100 µM
[6]
  IC50: > 100 µM
